Data: patent publication US9745305B2, “Modulators of methyl modifying enzymes, compositions and uses thereof” (Constellation Pharmaceuticals, Inc., priority 2013, dated 2017)

What was measured:
EZH2 = EZH2 (Homo sapiens, UniProt Q15910); test: EZH2 Assay (3H SAM methyl transfer, rPRC2, FlashPlate); type: biochemical; details: rPRC2, biotinylated oligonucleosomes, 0.2 μM 3H SAM, 2 nM EZH2
Method in brief: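 rPRC2 (2 nM EZH2) was preincubated 20 min with compound (80 to 0.16 μM, 10 points), then reacted 60 min with 0.2 μM ³H-SAM, 0.2 μM biotinylated oligonucleosomes and 3.6 μM H3K27me3 peptide at pH 8.5. Methylated product was captured on SAV FlashPlates and counted, and IC50 came from a 4-parameter fit.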

[1] = system: H3K27me3 mark in Hela cells expressing wild type EZH2; test: H3K27me3 Alpha Hela Assay (AlphaLISA); type: cell-based; details: Homo sapiens, 72 hrs, read-out: H3K27me3_Alpha_HeLa (EC50)
Method in brief: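 HeLa cells (1,000/well) were exposed 72 h at 37 °C to ten 3-fold compound dilutions. H3K27me3 was then measured by AlphaLISA after histone lysis/extraction, using anti-K27me3 acceptor beads, biotinylated anti-H3 and streptavidin donor beads. Signals were normalized to DMSO and fitted to dose-response curves; a duplicate plate measured viability.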

EZH2, sequence (Q15910 whole entry): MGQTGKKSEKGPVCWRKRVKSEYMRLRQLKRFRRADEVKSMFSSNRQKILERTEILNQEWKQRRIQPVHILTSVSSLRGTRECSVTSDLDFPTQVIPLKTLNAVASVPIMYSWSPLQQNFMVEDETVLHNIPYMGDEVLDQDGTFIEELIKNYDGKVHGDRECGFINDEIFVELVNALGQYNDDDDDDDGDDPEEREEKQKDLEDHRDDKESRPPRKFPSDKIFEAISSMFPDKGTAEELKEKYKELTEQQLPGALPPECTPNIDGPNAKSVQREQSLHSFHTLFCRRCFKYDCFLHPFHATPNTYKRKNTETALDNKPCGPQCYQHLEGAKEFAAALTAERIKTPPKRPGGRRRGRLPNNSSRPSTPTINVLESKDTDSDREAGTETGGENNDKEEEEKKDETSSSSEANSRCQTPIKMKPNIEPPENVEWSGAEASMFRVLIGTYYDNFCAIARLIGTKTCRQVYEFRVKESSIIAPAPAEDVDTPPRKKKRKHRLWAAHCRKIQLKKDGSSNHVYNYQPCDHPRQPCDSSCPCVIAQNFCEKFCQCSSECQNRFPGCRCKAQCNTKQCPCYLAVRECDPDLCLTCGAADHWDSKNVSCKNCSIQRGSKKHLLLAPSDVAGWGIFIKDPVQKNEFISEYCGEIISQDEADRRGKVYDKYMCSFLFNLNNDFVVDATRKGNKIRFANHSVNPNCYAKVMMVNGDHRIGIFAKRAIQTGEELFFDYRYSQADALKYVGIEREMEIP
EZH2, sequence (O75530 whole entry partner): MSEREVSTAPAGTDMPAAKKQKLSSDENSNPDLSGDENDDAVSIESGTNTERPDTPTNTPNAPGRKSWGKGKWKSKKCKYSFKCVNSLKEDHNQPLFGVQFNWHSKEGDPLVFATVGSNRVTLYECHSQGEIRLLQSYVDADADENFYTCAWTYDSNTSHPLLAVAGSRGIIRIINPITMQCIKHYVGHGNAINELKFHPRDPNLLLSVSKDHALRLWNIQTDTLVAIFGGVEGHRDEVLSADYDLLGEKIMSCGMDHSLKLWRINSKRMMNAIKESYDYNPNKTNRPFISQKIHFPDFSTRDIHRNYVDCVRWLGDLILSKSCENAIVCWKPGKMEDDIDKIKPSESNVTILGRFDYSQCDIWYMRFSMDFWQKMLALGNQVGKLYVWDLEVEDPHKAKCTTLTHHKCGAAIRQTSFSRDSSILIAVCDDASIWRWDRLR
EZH2, sequence (Q15022 whole entry partner): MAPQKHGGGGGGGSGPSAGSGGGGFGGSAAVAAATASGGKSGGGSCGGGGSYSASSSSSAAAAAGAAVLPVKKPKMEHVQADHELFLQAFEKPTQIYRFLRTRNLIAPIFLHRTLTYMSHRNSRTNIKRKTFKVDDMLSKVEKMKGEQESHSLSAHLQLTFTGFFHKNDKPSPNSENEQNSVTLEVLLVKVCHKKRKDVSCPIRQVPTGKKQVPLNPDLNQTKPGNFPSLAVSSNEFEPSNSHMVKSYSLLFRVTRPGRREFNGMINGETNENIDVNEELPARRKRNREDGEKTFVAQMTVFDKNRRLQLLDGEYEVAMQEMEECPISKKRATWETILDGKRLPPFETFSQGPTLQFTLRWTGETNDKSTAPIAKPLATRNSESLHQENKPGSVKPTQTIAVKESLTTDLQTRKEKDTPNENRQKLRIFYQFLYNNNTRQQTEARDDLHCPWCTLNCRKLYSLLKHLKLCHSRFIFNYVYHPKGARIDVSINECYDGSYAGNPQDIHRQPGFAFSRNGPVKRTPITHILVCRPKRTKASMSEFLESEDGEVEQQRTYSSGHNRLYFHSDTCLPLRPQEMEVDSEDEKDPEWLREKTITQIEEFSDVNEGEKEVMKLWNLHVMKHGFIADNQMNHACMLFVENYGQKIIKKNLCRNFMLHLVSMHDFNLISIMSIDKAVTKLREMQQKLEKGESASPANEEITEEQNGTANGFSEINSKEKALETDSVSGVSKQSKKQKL

Row | SMILES | IC50 (EZH2) [nM] | EC50 [1] [nM]
1 | COc1cc(C)[nH]c(=O)c1CNC(=O)c1c(C)c(C(C)c2ccccc2)n2ncccc12 (racemic) [Compound 101, (±)-N-((4-methoxy-6-methyl-2-oxo-1,2-dihydropyridin-3-yl)methyl)-6-methyl-7-(1-phenylethyl)pyrrolo[1,2-b]pyridazine-5-carboxamide] | < 100 | < 400
2 | COc1cc(C)[nH]c(=O)c1CNC(=O)c1c(C)c(C(C)C2CCOCC2)n2ncccc12 (racemic) [Compound 116, (±)-N-((4-methoxy-6-methyl-2-oxo-1,2-dihydropyridin-3-yl)methyl)-6-methyl-7-(1-(tetrahydro-2H-pyran-4-yl)ethyl)pyrrolo[1,2-b]pyridazine-5-carboxamide] | < 100 | < 400
3 | COc1cc(C)[nH]c(=O)c1CNC(=O)c1c(C)c(C(C)c2ccccc2)n2ncccc12 (single isomer, unassigned) [Compound 105, (R or S)-N-((4-methoxy-6-methyl-2-oxo-1,2-dihydropyridin-3-yl)methyl)-6-methyl-7-(1-phenylethyl)pyrrolo[1,2-b]pyridazine-5-carboxamide] | < 100 | < 400
